Experimental data as given in patent US20240016781A1, “TREATMENT OF KRAS MUTANT CANCERS” (MEI Pharma, Inc., priority 2020, published 2024).
Like-named read-outs stand apart in the source and are kept apart here.

Experiments:
Test in all cases: 72-hour CellTiter-Glo 2.0 growth inhibition screen (single agent, 9x9 combination dose matrix);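 on Best CI Level: inhibition effect level at which the best CI was calculated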
Type in all cases: cell-based
Gp2D = conditions: for EC50: GP2d
SW48 KRAS (G12C/+) = conditions: for EC50: SW48, 72 h, read-out: EC50
SW837 = conditions: for EC50: SW837, 72 h
AsPC-1 = conditions: for EC50: ASPC1, 72 h
NCI-H358 = conditions: for EC50: NCI-H358, 72 h
[1] = Gp2D (KRAS G12D), enhancer + MEI-522 (Voruciclib), 72 h;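 on Best CI Level: inhibition effect level at which the best CI was calculated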
[2] = Gp2D, Colorectal, Additional Single Agent Responses (inhibition, % I), 72 h
[3] = enhancer combined with MEI-522 (Voruciclib), Gp2D (Colorectal), 72 hours, inhibition data
[4] = Homo sapiens, SW48 KRAS (G12C/+), Colorectal, Additional Single Agent Responses (inhibition, % I), 72 h
[5] = Homo sapiens, SW48 KRAS (G12C/+), Colorectal, growth inhibition (GI) curve, single agent, 72 h
[6] = SW48 KRAS (G12C/+), enhancer + MEI-522 (Voruciclib), 72 h
[7] = enhancer combined with MEI-522 (Voruciclib), SW48 KRAS (G12C/+) (Colorectal), 72 hours, inhibition data
[8] = Homo sapiens, SW837, Colorectal, Additional Single Agent Responses (inhibition, % I), 72 h
[9] = Homo sapiens, SW837, Colorectal, growth inhibition (GI) curve, single agent, 72 h
[10] = SW837 (KRAS G12C), enhancer + MEI-522 (Voruciclib), 72 h;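 on Best CI Level: inhibition effect level at which the best CI was calculated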
[11] = enhancer combined with MEI-522 (Voruciclib), SW837 (Colorectal), 72 hours, inhibition data
[12] = AsPC-1 (KRAS G12D), enhancer + MEI-522 (Voruciclib), 72 h;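 on Best CI Level: inhibition effect level at which the best CI was calculated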
[13] = enhancer combined with MEI-522 (Voruciclib), AsPC-1 (Pancreas), 72 hours, inhibition data
[14] = NCl-H358 (KRAS G12C), enhancer + MEI-522 (Voruciclib), 72 h
[15] = enhancer combined with MEI-522 (Voruciclib), NCl-H358 (Lung), 72 hours, inhibition data

CC[C@@H]1C(=O)N(C)c2cnc(Nc3ccc(C(=O)N[C@H]4CC[C@H](N5CCN(CC6CC6)CC5)CC4)cc3OC)nc2N1C(C)C [Volasertib]
EC50 (Gp2D; 72 h, Colorectal, Additional Single Agent Responses (inhibition, % I)): 2.1 nM | EC50 (Gp2D; 72 h, Colorectal, growth inhibition (GI) curve, single agent): 2.5 nM | Best CI (Gp2D; [1]): 0.59 | Bliss Volume (Gp2D; [1]): 9.40 | HSA volume (Gp2D; [1]): 0.44 | Loewe Volume (Gp2D; [1]): 1.73 | Synergy Score (Gp2D; [1]): 15.26 | IC50 (Gp2D; [2]): 2.4 nM | Response Area (Gp2D; [2]): 4.53 | Emax (Gp2D; Gp2D, Colorectal, Additional Single Agent Responses, 72 h, read-out: Max Response (% I)): 91% | GI50 (Gp2D; Gp2D, Colorectal, growth inhibition (GI) curve, single agent, 72 h): 2.2 nM | Response Area (Gp2D; Gp2D, Colorectal, growth inhibition (GI), AUC, single agent, 72 h): 6.83 | Emax (Gp2D; Gp2D, Colorectal, growth inhibition (GI), single agent, 72 h, read-out: Max Response (% GI)): 161% | Best CI (Gp2D; [3]): 0.16 | Best CI Level (Gp2D; [3]): 80 | Bliss Volume (Gp2D; [3]): −1.26 | HSA volume (Gp2D; [3]): −0.27 | Loewe Volume (Gp2D; [3]): −0.15 | Synergy Score (Gp2D; [3]): 2.39 | EC50 (SW48 KRAS (G12C/+); [4]): 4.3 nM | EC50 (SW48 KRAS (G12C/+); [5]): 4.4 nM | IC50 (SW48 KRAS (G12C/+); [4]): 4.6 nM | Emax (SW48 KRAS (G12C/+); Homo sapiens, SW48 KRAS (G12C/+), Colorectal, Additional Single Agent Responses, 72 h, read-out: Max Response (% I)): 90% | GI50 (SW48 KRAS (G12C/+); [5]): 4.4 nM | Emax (SW48 KRAS (G12C/+); Homo sapiens, SW48 KRAS (G12C/+), Colorectal, growth inhibition (GI), single agent, 72 h, read-out: Max Response (% GI)): 141% | Response Area (SW48 KRAS (G12C/+); SW48 KRAS (G12C/+), Colorectal, Additional Single Agent Responses (inhibition, % I), 72 h): 3.98 | Response Area (SW48 KRAS (G12C/+); SW48 KRAS (G12C/+), Colorectal, growth inhibition (GI), AUC, single agent, 72 h): 5.48 | Best CI (SW48 KRAS (G12C/+); [6]): 0.08 | Bliss Volume (SW48 KRAS (G12C/+); [6]): 5.42 | HSA volume (SW48 KRAS (G12C/+); [6]): 1.24 | Loewe Volume (SW48 KRAS (G12C/+); [6]): 2.81 | Synergy Score (SW48 KRAS (G12C/+); [6]): 11.77 | Best CI (SW48 KRAS (G12C/+); [7]): 0.13 | Best CI Level (SW48 KRAS (G12C/+); [7]): 80 | Bliss Volume (SW48 KRAS (G12C/+); [7]): −0.04 | HSA volume (SW48 KRAS (G12C/+); [7]): 0.65 | Loewe Volume (SW48 KRAS (G12C/+); [7]): 1.39 | Synergy Score (SW48 KRAS (G12C/+); [7]): 3.33 | EC50 (SW837; [8]): 13.8 nM | EC50 (SW837; [9]): 20.1 nM | IC50 (SW837; [8]): 21 nM | Emax (SW837; Homo sapiens, SW837, Colorectal, Additional Single Agent Responses, 72 h, read-out: Max Response (% I)): 79% | GI50 (SW837; [9]): 14.8 nM | Emax (SW837; Homo sapiens, SW837, Colorectal, growth inhibition (GI), single agent, 72 h, read-out: Max Response (% GI)): 128% | Best CI (SW837; [10]): 0.72 | Bliss Volume (SW837; [10]): 4.69 | HSA volume (SW837; [10]): 2.14 | Loewe Volume (SW837; [10]): 0.39 | Synergy Score (SW837; [10]): 5.42 | Response Area (SW837; SW837, Colorectal, Additional Single Agent Responses (inhibition, % I), 72 h): 3.61 | Response Area (SW837; SW837, Colorectal, growth inhibition (GI), AUC, single agent, 72 h): 5.63 | Best CI (SW837; [11]): 0.83 | Best CI Level (SW837; [11]): 20 | Bliss Volume (SW837; [11]): 0.17 | HSA volume (SW837; [11]): 1.01 | Loewe Volume (SW837; [11]): 0.29 | Synergy Score (SW837; [11]): 1.39 | Best CI (AsPC-1; [12]): 0.51 | Bliss Volume (AsPC-1; [12]): −1.02 | HSA volume (AsPC-1; [12]): 0.04 | Loewe Volume (AsPC-1; [12]): −0.85 | Synergy Score (AsPC-1; [12]): 1.87 | Response Area (AsPC-1; AsPC-1, Pancreas, Additional Single Agent Responses (inhibition, % I), 72 h): 3.11 | Response Area (AsPC-1; AsPC-1, Pancreas, growth inhibition (GI), AUC, single agent, 72 h): 4.36 | EC50 (AsPC-1; Homo sapiens, AsPC-1, Pancreas, Additional Single Agent Responses (inhibition, % I), 72 h): 12.2 nM | EC50 (AsPC-1; Homo sapiens, AsPC-1, Pancreas, growth inhibition (GI) curve, single agent, 72 h): 12.2 nM | IC50 (AsPC-1; Homo sapiens, ASPC1, AsPC-1, Pancreas, Additional Single Agent Responses (inhibition, % I), 72 h): 23.1 nM | Emax (AsPC-1; Homo sapiens, ASPC1, AsPC-1, Pancreas, Additional Single Agent Responses, 72 h, read-out: Max Response (% I)): 69% | GI50 (AsPC-1; Homo sapiens, ASPC1, AsPC-1, Pancreas, growth inhibition (GI) curve, single agent, 72 h): 13.7 nM | Emax (AsPC-1; Homo sapiens, ASPC1, AsPC-1, Pancreas, growth inhibition (GI), single agent, 72 h, read-out: Max Response (% GI)): 96% | Best CI (AsPC-1; [13]): 0.89 | Best CI Level (AsPC-1; [13]): 20 | Bliss Volume (AsPC-1; [13]): −2.24 | HSA volume (AsPC-1; [13]): −0.18 | Loewe Volume (AsPC-1; [13]): −0.80 | Synergy Score (AsPC-1; [13]): 0.83 | EC50 (NCI-H358; Homo sapiens, NCl-H358, Lung, Additional Single Agent Responses (inhibition, % I), 72 h): 6.1 nM | EC50 (NCI-H358; Homo sapiens, NCl-H358, Lung, growth inhibition (GI) curve, single agent, 72 h): 6.1 nM | IC50 (NCI-H358; Homo sapiens, NCI-H358, NCl-H358, Lung, Additional Single Agent Responses (inhibition, % I), 72 h): 7.8 nM | Emax (NCI-H358; Homo sapiens, NCI-H358, NCl-H358, Lung, Additional Single Agent Responses, 72 h, read-out: Max Response (% I)): 75% | GI50 (NCI-H358; Homo sapiens, NCI-H358, NCl-H358, Lung, growth inhibition (GI) curve, single agent, 72 h): 6.5 nM | Emax (NCI-H358; Homo sapiens, NCI-H358, NCl-H358, Lung, growth inhibition (GI), single agent, 72 h, read-out: Max Response (% GI)): 100% | Bliss Volume (NCI-H358; [14]): −1.58 | HSA volume (NCI-H358; [14]): −4.12 | Loewe Volume (NCI-H358; [14]): −3.93 | Synergy Score (NCI-H358; [14]): 3.21 | Response Area (NCI-H358; NCl-H358, Lung, Additional Single Agent Responses (inhibition, % I), 72 h): 3.44 | Response Area (NCI-H358; NCl-H358, Lung, growth inhibition (GI), AUC, single agent, 72 h): 4.57 | Best CI (NCI-H358; [15]): 0.80 | Best CI Level (NCI-H358; [15]): 20 | Bliss Volume (NCI-H358; [15]): −4.08 | HSA volume (NCI-H358; [15]): −3.08 | Loewe Volume (NCI-H358; [15]): −3.28 | Synergy Score (NCI-H358; [15]): 0.69
